Structures can show the parent of a compound that is named as a salt.
Key:
[1] = target: human ACC1 (Homo sapiens, UniProt Q13085); experiment: Acetyl CoA carboxylase (ACC) activity inhibition test, human ACC1; type: biochemical; settings: 1 μmol/liter compound; control: DMSO well without test compound; read-out: Inhibition (%) by 1 μmol/liter Chemical, human ACC1
Experimental: (§1) A. Pharmacological Test Example (Acetyl CoA Carboxylase (ACC) Activity Inhibition Test)
(§2) Concretely, 0.8 μl of the diluted test compound is added to each well of 96-well assay plate (Perkin Elmer Opti Plate), then 40 μl of a substrate solution (50 mM Hepes sodium (pH 7.5), 2 mM DTT, 10 mM ATP, 500 μM acetyl CoA, 0.17 mM NaH[^14C]O3 (58 mCi/mmol, by Amersham), 8 mM NaHCO3) is added to each well, and 40 μL of an enzyme solution (1 to 2 nM human ACC1 or human ACC2, 50 mM Hepes sodium (pH 7.5), 2 mM DTT, 40 mM MgCl2, 40 mM tripotassium citrate 1 mg/ml fetal bovine serum albumin) is added thereto. Then, the upper side of the plate is sealed up, and the plate is incubated with gently stirring at 37° C. for 40 minutes. Next, 20 μl of 1N HCl is added to each well to stop the enzyme reaction, and the assay plate is stirred overnight to remove the unreacted NaH[^14C]O3. Next, 100 μl of a scintillator (Perkin Elmer's Microscinti 40) is added to each well and the plate is stirred, then the radioactivity of the fixed [^14C] is counted using a microplate scintillation counter (Perlin Elmer's Topcount), the radioactivity of which represents the enzyme activity in each well. The human ACC1 and human ACC2 enzyme-inhibition activities of the test compounds are calculated, based on the radioactivity of the well added by DMSO without test compound as a control.

[2] = target: human ACC2 (Homo sapiens, UniProt O00763); experiment: Acetyl CoA carboxylase (ACC) activity inhibition test, human ACC2; type: biochemical; settings: 1 μmol/liter compound; control: DMSO well without test compound; read-out: Inhibition (%) by 1 μmol/liter Chemical, human ACC2
Chain of human ACC2 (O00763 whole entry): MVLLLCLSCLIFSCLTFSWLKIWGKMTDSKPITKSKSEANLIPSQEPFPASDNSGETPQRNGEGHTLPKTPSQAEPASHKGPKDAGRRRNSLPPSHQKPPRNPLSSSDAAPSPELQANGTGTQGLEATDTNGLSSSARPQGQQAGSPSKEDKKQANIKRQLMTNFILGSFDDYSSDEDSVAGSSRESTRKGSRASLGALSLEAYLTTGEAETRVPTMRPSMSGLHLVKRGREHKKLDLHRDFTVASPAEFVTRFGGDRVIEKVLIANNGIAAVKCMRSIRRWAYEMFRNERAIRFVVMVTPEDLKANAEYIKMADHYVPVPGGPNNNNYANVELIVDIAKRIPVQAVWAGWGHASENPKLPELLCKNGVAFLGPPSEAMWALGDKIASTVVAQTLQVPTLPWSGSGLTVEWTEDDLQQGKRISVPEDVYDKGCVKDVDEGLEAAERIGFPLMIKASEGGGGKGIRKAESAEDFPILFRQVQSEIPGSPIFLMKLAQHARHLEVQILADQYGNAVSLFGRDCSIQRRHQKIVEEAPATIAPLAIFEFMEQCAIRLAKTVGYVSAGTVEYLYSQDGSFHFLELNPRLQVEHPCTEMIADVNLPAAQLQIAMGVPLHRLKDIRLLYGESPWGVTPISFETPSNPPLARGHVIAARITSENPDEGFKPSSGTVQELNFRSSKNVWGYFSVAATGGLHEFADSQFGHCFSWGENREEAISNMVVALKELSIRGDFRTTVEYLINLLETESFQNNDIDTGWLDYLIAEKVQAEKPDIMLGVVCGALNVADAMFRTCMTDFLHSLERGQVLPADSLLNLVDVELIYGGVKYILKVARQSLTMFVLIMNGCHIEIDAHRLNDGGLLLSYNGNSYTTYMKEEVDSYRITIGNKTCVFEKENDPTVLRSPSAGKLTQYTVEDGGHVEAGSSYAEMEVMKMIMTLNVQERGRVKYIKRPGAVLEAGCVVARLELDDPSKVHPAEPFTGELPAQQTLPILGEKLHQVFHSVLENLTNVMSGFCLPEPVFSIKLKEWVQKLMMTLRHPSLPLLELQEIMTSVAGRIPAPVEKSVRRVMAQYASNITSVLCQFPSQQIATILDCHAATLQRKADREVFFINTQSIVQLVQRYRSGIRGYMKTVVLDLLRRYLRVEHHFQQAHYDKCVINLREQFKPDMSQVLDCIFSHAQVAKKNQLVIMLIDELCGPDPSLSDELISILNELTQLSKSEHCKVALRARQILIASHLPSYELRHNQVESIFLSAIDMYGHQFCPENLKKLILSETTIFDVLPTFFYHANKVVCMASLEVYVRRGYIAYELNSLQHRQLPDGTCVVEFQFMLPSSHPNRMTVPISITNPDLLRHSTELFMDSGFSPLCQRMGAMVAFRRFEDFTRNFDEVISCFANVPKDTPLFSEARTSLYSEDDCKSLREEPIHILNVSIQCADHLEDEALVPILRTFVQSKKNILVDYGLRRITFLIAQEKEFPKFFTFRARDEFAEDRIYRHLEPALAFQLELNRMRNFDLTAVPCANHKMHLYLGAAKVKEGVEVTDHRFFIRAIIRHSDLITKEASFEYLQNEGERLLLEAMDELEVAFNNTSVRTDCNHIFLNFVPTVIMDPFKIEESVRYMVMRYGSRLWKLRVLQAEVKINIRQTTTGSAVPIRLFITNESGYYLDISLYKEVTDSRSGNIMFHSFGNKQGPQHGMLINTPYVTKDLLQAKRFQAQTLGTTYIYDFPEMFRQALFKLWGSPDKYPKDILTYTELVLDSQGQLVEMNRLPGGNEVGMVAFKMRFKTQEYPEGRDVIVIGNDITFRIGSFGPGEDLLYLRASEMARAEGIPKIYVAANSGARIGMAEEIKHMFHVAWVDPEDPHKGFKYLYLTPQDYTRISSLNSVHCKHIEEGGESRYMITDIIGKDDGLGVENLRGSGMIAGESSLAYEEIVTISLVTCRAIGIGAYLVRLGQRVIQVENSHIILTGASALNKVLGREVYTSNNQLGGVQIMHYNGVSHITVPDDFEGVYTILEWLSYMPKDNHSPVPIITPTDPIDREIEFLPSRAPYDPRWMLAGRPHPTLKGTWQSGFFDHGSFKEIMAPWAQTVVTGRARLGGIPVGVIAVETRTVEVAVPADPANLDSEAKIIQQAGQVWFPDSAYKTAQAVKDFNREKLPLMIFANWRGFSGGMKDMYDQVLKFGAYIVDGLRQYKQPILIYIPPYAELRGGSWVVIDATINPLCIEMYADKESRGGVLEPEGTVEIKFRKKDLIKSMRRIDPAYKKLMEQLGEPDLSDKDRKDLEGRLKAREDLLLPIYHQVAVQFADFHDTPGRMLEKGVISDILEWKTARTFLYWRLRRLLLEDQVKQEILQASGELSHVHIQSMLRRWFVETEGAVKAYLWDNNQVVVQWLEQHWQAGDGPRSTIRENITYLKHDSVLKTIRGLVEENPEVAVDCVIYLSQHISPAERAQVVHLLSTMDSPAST
Experimental: as §1, §2

## COc1cc(C(=O)N2CCC3(CC2)CC(=O)c2cc(NC(C)=O)ccc2O3)nc2ccccc12 [Example 2, N-{1′-[(4-methoxyquinolin-2-yl)carbonyl]-4-oxospiro[chroman-2,4′-piperidin]-6-yl}acetamide hydrochloride]
[1]
  inhibition at 1 µM: 82%
[2]
  inhibition at 1 µM: 85%

## COc1cc(C(=O)N2CCC3(CC2)CC(=O)c2cc(NC(C)=O)ccc2O3)nc2c(OC)cccc12 [Example 3, N-{1′-[(4,8-dimethoxyquinolin-2-yl)carbonyl]-4-oxospiro[chroman-2,4′-piperidin]-6-yl}acetamide]
[1]
  inhibition at 1 µM: 100%
[2]
  inhibition at 1 µM: 98%

## COc1cc(C(=O)N2CCC3(CC2)CC(=O)c2ccccc2O3)nc2c(OC)cccc12 [Example 4, 1′-[(4,8-dimethoxyquinolin-2-yl)carbonyl]spiro[chroman-2,4′-piperidin]-4-one]
[1]
  inhibition at 1 µM: 93%
[2]
  inhibition at 1 µM: 96%

## COc1cc(C(=O)N2CCC3(CC2)CC(=O)c2cc(N)ccc2O3)nc2c(OC)cccc12 [Example 5, 6-amino-1′-[(4,8-dimethoxyquinolin-2-yl)carbonyl]spiro[chroman-2,4′-piperidin]-4-one]
[1]
  inhibition at 1 µM: 97%
[2]
  inhibition at 1 µM: 97%

## COc1cc(C(=O)N2CCC3(CC2)CC(=O)c2cc(Nc4ccnn4C)ccc2O3)nc2c(OC)cccc12 [Example 10, 1′-[(4,8-dimethoxyquinolin-2-yl)carbonyl]-6-[(1-methyl-1H-pyrazol-5-yl)amino]spiro[chroman-2,4′-piperidin]-4-one]
[1]
  inhibition at 1 µM: 100%
[2]
  inhibition at 1 µM: 99%

## COc1cc(C(=O)N2CCC3(CC2)CC(=O)c2cc(-c4nnn[nH]4)ccc2O3)nc2c(OC)cccc12 [Example 18, 1′-[(4,8-dimethoxyquinolin-2-yl)carbonyl]-6-(1H-tetrazol-5-yl)spiro[chroman-2,4′-piperidin]-4-one sodium salt]
[1]
  inhibition at 1 µM: 97%
[2]
  inhibition at 1 µM: 99%

## CCOc1cc(C(=O)N2CCC3(CC2)CC(=O)c2cc(-c4nnn[nH]4)ccc2O3)nc2c(C3CC3)nccc12 [Example 21, 1′-[(8-cyclopropyl-4-ethoxy-1.7-naphthyridin-2-yl)carbonyl]-6-(1H-tetrazol-5-yl)spiro[chroman-2,4′-piperidin]-4-one]
[1]
  inhibition at 1 µM: 99%
[2]
  inhibition at 1 µM: 97%

## COc1cc(C(=O)N2CCC3(CC2)CC(=O)c2cc(-c4nc[nH]n4)ccc2O3)nc2c(OC)cccc12 [Example 27, 1′-[(4,8-dimethoxyquinolin-2-yl)carbonyl]-6-(1H-1,2,4-triazol-3-yl)-spiro[chroman-2,4′-piperidin]-4-one]
[1]
  inhibition at 1 µM: 101%
[2]
  inhibition at 1 µM: 100%
